Reference: patent US11872226B2, “N-benzyl-2-phenoxybenzamide derivatives as prostaglandin E2 (PGE2) receptors modulators” (MEDIBIOFARMA, S.L., priority 2019, dated 2024)

Columns and labels:
human EP2 receptor = target: T1, human EP2 receptor (Homo sapiens, UniProt P43116); assay: Competition binding in human EP2 receptor; conditions: [3H]-Prostaglandin E2 competition, membranes from EP2 cell line
T1 construct: purchased Millipore HTS185M
Protocol: (§1) The compounds of the present invention were assayed for binding at human EP1, EP2, EP3 and EP4 receptors and were tested at several concentrations for IC50 determination.
Competition Binding in Human EP2 Receptor:
Prostaglandin EP2 receptor competition binding experiments were carried out in a polypropylene 96-well microplate plate with binding buffer (Hepes 50 mM, CaCl2 1 mM, MgCl2 5 mM, pH=7.4). In each well was incubated 10 μg of membranes from EP2 cell line (Millipore HTS185M, protein concentration=2000 μg/ml), 7.5 nM [3H]-Prostaglandin E2 (169.8 Ci/mmol, 0.1 mCi/ml, Perkin Elmer NET428250UC) and compounds studied and standard. Non-specific binding was determined in the presence of PGE2 200 μM (Cayman 14010). The reaction mixture (Vt: 250 μl/well) was incubated at 25° C. for 90 min, 200 μL was transferred to GF/C 96-well plate (Millipore, Madrid, Spain) after was filtered and washed four times with 250 μl wash buffer (Hepes 50 mM, NaCl 500 mM, pH=7.4), before measuring in a microplate beta scintillation counter (Microbeta Trilux, Perkin Elmer, Madrid, Spain). (Wilson et al., Br J Pharmacol 2006; 148:326-339).
(§2) The inhibition constants (Ki) were calculated using the Cheng Prusoff equation
(§3) [formula] where L=concentration of radioligand in the assay, and KD=affinity of the radioligand for the receptor. A scatchard plot is used to determine the KD.

human EP4 receptor = target: T2, human EP4 receptor (Homo sapiens, UniProt P35408); assay: Competition binding in human EP4 receptor; conditions: [3H]-Prostaglandin E2 competition, membranes from HEK-EP4 cell line
T2 construct: expressed in transfected cells; host or cells: HEK-EP4 cell line; membranes prepared in house
Protocol: as §1
Competition Binding in Human EP4 Receptor:
Prostaglandin EP4 receptor competition binding experiments were carried out in a multiscreen GF/B 96-well plate (Millipore, Madrid, Spain) pretreated with binding buffer (Mes 25 mM, EDTA 1 mM, MgCl2 10 mM, pH=6.0). In each well was incubated 35 μg of membranes from HEK-EP4 cell line and prepared in our laboratory (Lot: A003/27-04-2011, protein concentration=2803 μg/ml), 1 nM [3H]-Prostaglandin E2 (169.8 Ci/mmol, 0.1 mCi/ml, Perkin Elmer NET428250UC) and compounds studied and standard. Non-specific binding was determined in the presence of PGE2 10 μM (Cayman 14010). The reaction mixture (Vt: 250 μl/well) was incubated at 25° C. for 120 min, 200 μL was transferred to GF/B 96-well plate (Millipore, Madrid, Spain) after was filtered and washed six times with 250 μl wash buffer (Mes 25 mM, BSA 0.01%, pH=6.0), before measuring in a microplate beta scintillation counter (Microbeta Trilux, Perkin Elmer, Madrid, Spain). (Abramovitz et al., Biochim Biophys Acta 2000; 1483:285-293).
as §2, §3

T2 sequence (P35408 whole entry): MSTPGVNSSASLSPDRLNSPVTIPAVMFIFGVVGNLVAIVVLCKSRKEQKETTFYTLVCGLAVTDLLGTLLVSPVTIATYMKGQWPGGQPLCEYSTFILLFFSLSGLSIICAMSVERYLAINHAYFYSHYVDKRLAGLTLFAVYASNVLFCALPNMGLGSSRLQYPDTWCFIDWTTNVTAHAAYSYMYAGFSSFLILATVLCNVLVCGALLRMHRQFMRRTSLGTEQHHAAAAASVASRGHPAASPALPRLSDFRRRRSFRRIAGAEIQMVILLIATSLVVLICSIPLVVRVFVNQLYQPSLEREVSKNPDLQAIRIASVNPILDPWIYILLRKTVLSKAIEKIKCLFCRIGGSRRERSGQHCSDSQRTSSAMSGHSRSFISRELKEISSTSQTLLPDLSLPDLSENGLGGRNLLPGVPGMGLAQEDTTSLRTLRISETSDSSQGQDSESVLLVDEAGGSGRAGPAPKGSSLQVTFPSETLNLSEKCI
T1 sequence (P43116 whole entry): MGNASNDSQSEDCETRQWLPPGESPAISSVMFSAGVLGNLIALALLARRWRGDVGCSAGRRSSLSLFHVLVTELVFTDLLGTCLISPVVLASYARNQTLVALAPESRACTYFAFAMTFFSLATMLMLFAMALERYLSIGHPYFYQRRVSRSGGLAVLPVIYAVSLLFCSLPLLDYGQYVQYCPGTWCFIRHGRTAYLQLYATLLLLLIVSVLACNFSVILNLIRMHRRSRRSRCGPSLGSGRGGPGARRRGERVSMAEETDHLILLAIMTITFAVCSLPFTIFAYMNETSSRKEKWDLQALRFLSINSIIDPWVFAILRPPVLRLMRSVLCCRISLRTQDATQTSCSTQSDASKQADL

Row | Ki (human EP2 receptor) | Ki (human EP4 receptor) | Structure (SMILES)
1 | ≥ 10 µM | < 0.1 µM | O=C(O)c1ccc(CNC(=O)c2cc(-c3ccncc3)ccc2Oc2ccc(F)cc2)cc1 [Example 1, 4-((2-(4-fluorophenoxy)-5-(pyridin-4-yl)benzamido)methyl)benzoic acid]
2 | ≥ 10 µM | < 0.1 µM | O=C(O)c1ccc(CNC(=O)c2cc(-c3ccccc3)ccc2Oc2ccc(F)cc2)cc1 [Example 2, 4-((4-(4-fluorophenoxy)-[1,1′-biphenyl]-3-carboxamido)methyl)benzoic acid]
3 | ≥ 10 µM | < 0.1 µM | O=C(O)c1ccc(CNC(=O)c2cc(-c3ccc(Cl)cc3)ccc2Oc2ccc(F)cc2)cc1 [Example 3, 4-((4′-chloro-4-(4-fluorophenoxy)-[1,1′-biphenyl]-3-carboxamido)methyl) benzoic acid]
4 | < 0.1 µM | < 0.1 µM | O=C(O)c1ccc(CNC(=O)c2cc(-c3ccc(F)cc3)ccc2Oc2ccc(F)cc2)cc1 [Example 4, 4-((4′-fluoro-4-(4-fluorophenoxy)-[1,1′-biphenyl]-3-carboxamido)methyl) benzoic acid]
5 | < 0.1 µM | < 0.1 µM | O=C(O)c1ccc(CNC(=O)c2cc(-c3cccc(F)c3)ccc2Oc2ccc(F)cc2)cc1 [Example 5, 4-((3′-fluoro-4-(4-fluorophenoxy)-[1,1′-biphenyl]-3-carboxamido)methyl) benzoic acid]
6 | 1 to 10 µM | < 0.1 µM | O=C(O)c1ccc(CNC(=O)c2cc(-c3ccccc3F)ccc2Oc2ccc(F)cc2)cc1 [Example 6, 4-((2′-fluoro-4-(4-fluorophenoxy)-[1,1′-biphenyl]-3-carboxamido)methyl) benzoic acid]
7 | 1 to 10 µM | < 0.1 µM | N#Cc1ccc(-c2ccc(Oc3ccc(F)cc3)c(C(=O)NCc3ccc(C(=O)O)cc3)c2)cc1 [Example 7, 4-((4′-cyano-4-(4-fluorophenoxy)-[1,1′-biphenyl]-3-carboxamido)methyl) benzoic acid]
8 | < 0.1 µM | < 0.1 µM | N#Cc1cccc(-c2ccc(Oc3ccc(F)cc3)c(C(=O)NCc3ccc(C(=O)O)cc3)c2)c1 [Example 8, 4-((3′-cyano-4-(4-fluorophenoxy)-[1,1′-biphenyl]-3-carboxamido)methyl) benzoic acid]
9 | 1 to 10 µM | < 0.1 µM | O=C(O)c1ccc(CNC(=O)c2cc(-c3ccncc3F)ccc2Oc2ccc(F)cc2)cc1 [Example 9, 4-((2-(4-fluorophenoxy)-5-(3-fluoropyridin-4-yl)benzamido)methyl)benzoic acid]
10 | 1 to 10 µM | < 0.1 µM | O=C(O)c1ccc(CNC(=O)c2cc(-c3cccnc3)ccc2Oc2ccc(F)cc2)cc1 [Example 10, 4-((2-(4-fluorophenoxy)-5-(pyridin-3-yl)benzamido)methyl)benzoic acid]
11 | ≥ 10 µM | 0.1 to 1 µM | O=C(O)c1ccc(CNC(=O)c2cc(-c3ccncc3Cl)ccc2Oc2ccc(F)cc2)cc1 [Example 11, 4-((2-(4-fluorophenoxy)-5-(3-chloropyridin-4-yl)benzamido)methyl)benzoic acid]
12 | ≥ 10 µM | 0.1 to 1 µM | O=C(O)c1ccc(CNC(=O)c2cc(-c3cncnc3)ccc2Oc2ccc(F)cc2)cc1 [Example 12, 4-((2-(4-fluorophenoxy)-5-(pyrimidin-5-yl)benzamido)methyl)benzoic acid]
13 | < 0.1 µM | 0.1 to 1 µM | O=C(O)c1ccc(CNC(=O)c2cc(-c3ccc(F)c(F)c3)ccc2Oc2ccc(F)cc2)cc1 [Example 13, 4-((3′,4′-difluoro-4-(4-fluorophenoxy)-[1,1′-biphenyl]-3-carboxamido)methyl)benzoic acid]
14 | 0.1 to 1 µM | 1 to 10 µM | O=C(O)c1ccc(CNC(=O)c2cc(-c3ccc(C(F)(F)F)cc3)ccc2Oc2ccc(F)cc2)cc1 [Example 14, 4-((4-(4-fluorophenoxy)-4′-(trifluoromethyl)-[1,1′-biphenyl]-3-carboxamido)methyl)benzoic acid]
15 | < 0.1 µM | < 0.1 µM | O=C(O)c1ccc(CNC(=O)c2cc(-c3cccc(C(F)(F)F)c3)ccc2Oc2ccc(F)cc2)cc1 [Example 15, 4-((4-(4-fluorophenoxy)-3′-(trifluoromethyl)-[1,1′-biphenyl]-3-carboxamido)methyl)benzoic acid]
16 | 1 to 10 µM | < 0.1 µM | O=C(O)c1ccc(CNC(=O)c2cc(-c3cccs3)ccc2Oc2ccc(F)cc2)cc1 [Example 18, 4-((2-(4-fluorophenoxy)-5-(thiophen-2-yl)benzamido)methyl)benzoic acid]
17 | < 0.1 µM | < 0.1 µM | O=C(O)c1ccc(CNC(=O)c2cc(-c3cc(F)cc(F)c3)ccc2Oc2ccc(F)cc2)cc1 [Example 19, 4-((3′,5′-difluoro-4-(4-fluorophenoxy)-[1,1′-biphenyl]-3-carboxamido)methyl)benzoic acid]
18 | 1 to 10 µM | < 0.1 µM | O=C(O)c1ccc(CNC(=O)c2cc(-c3cccc(Cl)c3)ccc2Oc2ccc(F)cc2)cc1 [Example 20, 4-((3′-chloro-4-(4-fluorophenoxy)-[1,1′-biphenyl]-3-carboxamido)methyl) benzoic acid]
19 | < 0.1 µM | < 0.1 µM | O=C(O)c1ccc(CNC(=O)c2cc(-c3cc(F)cc(C(F)(F)F)c3)ccc2Oc2ccc(F)cc2)cc1 [Example 21, 4-((3′-fluoro-4-(4-fluorophenoxy)-5′-(trifluoromethyl)-[1,1′-biphenyl]-3-carboxamido)methyl)benzoic acid]
20 | ≥ 10 µM | < 0.1 µM | O=C(O)c1ccc(CNC(=O)c2cc(-c3cccc(-c4ccncc4)c3)ccc2Oc2ccc(F)cc2)cc1 [Example 26, 4-((4-(4-fluorophenoxy)-3′-(pyridin-4-yl)-[1,1′-biphenyl]-3-ylcarboxamido)methyl)benzoic acid]
21 | 1 to 10 µM | 1 to 10 µM | NC(=O)c1ccc(-c2ccc(Oc3ccc(F)cc3)c(C(=O)NCc3ccc(C(=O)O)cc3)c2)o1 [Example 27, 4-((5-(5-carbamoylfuran-2-yl)-2-(4-fluorophenoxy)benzamido)methyl) benzoic acid]
22 | 1 to 10 µM | < 0.1 µM | O=C(O)c1ccc(CNC(=O)c2cc(-c3cccc(C(F)(F)F)c3)ccc2Oc2ccc(F)cc2)c(F)c1 [Example 28, 3-fluoro-4-((4-(4-fluorophenoxy)-3′-(trifluoromethyl)-[1,1′-biphenyl]-3-ylcarboxamido)methyl)benzoic acid]
23 | 1 to 10 µM | < 0.1 µM | C[C@@H](NC(=O)c1cc(-c2cccc(C(F)(F)F)c2)ccc1Oc1ccc(F)cc1)c1ccc(C(=O)O)cc1 [Example 29, (R)-4-(1-(4-(4-fluorophenoxy)-3′-(trifluoromethyl)-[1,1′-biphenyl]-3-carboxamido)ethyl)benzoic acid]
24 | 1 to 10 µM | < 0.1 µM | O=C(O)c1ccc(C2(NC(=O)c3cc(-c4cccc(C(F)(F)F)c4)ccc3Oc3ccc(F)cc3)CC2)cc1 [Example 30, 4-(1-(4-(4-fluorophenoxy)-3′-(trifluoromethyl)-[1,1′-biphenyl]-3-carboxamido)cyclopropyl)benzoic acid]
25 | 1 to 10 µM | < 0.1 µM | N#Cc1cc(F)cc(-c2ccc(Oc3ccc(F)cc3)c(C(=O)NCc3ccc(C(=O)O)cc3)c2)c1 [Example 31, 4-((3′-fluoro-5′-cyano-4-(4-fluorophenoxy)-[1,1′-biphenyl]-3-carboxamido)methyl)benzoic acid]
26 | 1 to 10 µM | < 0.1 µM | N#Cc1cc(Cl)cc(-c2ccc(Oc3ccc(F)cc3)c(C(=O)NCc3ccc(C(=O)O)cc3)c2)c1 [Example 32, 4-((3′-chloro-5′-cyano-4-(4-fluorophenoxy)-[1,1′-biphenyl]-3-carboxamido)methyl)benzoic acid]
